Assay results taken from patent US6482921B1, “Uridyl peptide antibiotic (UPA) derivatives, their synthesis and use” (Essential Therapeutics, Inc., priority 1999, dated 2002).
Values after ≈ are worked out from the molar mass of the structure shown.

How the values were obtained:
[1] = test system: Mycobacterium tuberculosis H37Rv; test: MIC agar dilution, M. tuberculosis H37Rv; assay type: cell-based
[2] = test system: Mycobacterium fortuitum ATCC 6841; test: MIC broth microdilution, M. fortuitum ATCC 6841; details: 72 hours at 35° C., CAMHB
[3] = test system: Staphylococcus aureus ATCC 29213; test: MIC broth microdilution, S. aureus ATCC 29213 (wild type); assay type: cell-based; details: S. aureus ATCC 29213
Escherichia Coli MC 4100 = test: MIC broth microdilution, E. coli MC 4100 (wild type); assay type: cell-based; details: E. coli MC 4100
[4] = test system: Pseudomonas aeruginosa PAM 1135; test: MIC broth microdilution, P. aeruginosa PAM 1135 (high level UPA resistance); assay type: cell-based; details: P. aeruginosa PAM 1135 UPA1^r
[5] = test system: Pasteurella multocida pm002; test: MIC broth microdilution, P. multocida pm002 (wild type); assay type: cell-based
[6] = test system: Staphylococcus aureus 8325-4; test: MIC broth microdilution, S. aureus 8325-4 (wild type); assay type: cell-based; details: S. aureus 8325-4
[7] = test system: Escherichia Coli MC 4100 AcrAB UPA3r; test: MIC broth microdilution, E. coli MC 4100 AcrAB UPA3r (ΔAcrAB, UPA resistant); assay type: cell-based; details: E. coli AcrAB UPA3^r
[8] = test system: Mycobacterium smegmatis ATCC 19420; test: MIC broth microdilution, M. smegmatis ATCC 19420; details: 72 hours at 35° C., CAMHB
[9] = test system: Pseudomonas aeruginosa PAM 1020; test: MIC broth microdilution, P. aeruginosa PAM 1020 (wild type); assay type: cell-based; details: P. aeruginosa PAM 1020
[10] = test system: Pseudomonas aeruginosa PAM 1154; test: MIC broth microdilution, P. aeruginosa PAM 1154 (OprM::Hg); assay type: cell-based; details: P. aeruginosa PAM 1154 OprM::Hg
[11] = test system: Escherichia Coli MC 4100 AcrAB; test: MIC broth microdilution, E. coli MC 4100 AcrAB (ΔAcrAB); assay type: cell-based; details: E. coli AcrAB
[12] = test system: Pseudomonas aeruginosa PAM 1323; test: MIC broth microdilution, P. aeruginosa PAM 1323 (medium level UPA resistance); assay type: cell-based
[13] = test system: Mycobacterium tuberculosis TN913; test: MIC agar dilution, M. tuberculosis TN913; assay type: cell-based
[14] = target: bacterial translocase I (phospho-N-acetylmuramyl-pentapeptide translocase) (Escherichia coli, UniProt P0A6W3); details: background statement; cited from earlier work
Sequence of bacterial translocase I (phospho-N-acetylmuramyl-pentapeptide translocase) (P0A6W3 whole entry): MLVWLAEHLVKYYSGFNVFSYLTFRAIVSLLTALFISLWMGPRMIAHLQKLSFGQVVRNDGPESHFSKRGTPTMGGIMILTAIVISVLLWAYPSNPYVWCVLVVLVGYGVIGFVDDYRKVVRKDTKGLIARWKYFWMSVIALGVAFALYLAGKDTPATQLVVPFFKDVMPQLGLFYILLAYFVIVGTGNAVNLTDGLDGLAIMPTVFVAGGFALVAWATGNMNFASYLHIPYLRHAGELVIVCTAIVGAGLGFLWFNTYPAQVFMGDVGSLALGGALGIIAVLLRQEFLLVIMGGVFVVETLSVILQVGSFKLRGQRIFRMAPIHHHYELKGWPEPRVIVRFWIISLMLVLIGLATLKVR

[15] = test system: mammalian enzymes that catalyze the formation of lipid-linked saccharides; details: background statement; cited from earlier work

In the case of `CC(N)C(=O)N(C)C(C)C(NC(=O)C(Cc1ccc(F)cc1)NC(=O)NC(Cc1c[nH]c2ccccc12)C(=O)O)C(=O)NCC1CC(O)C(n2ccc(=O)[nH]c2=O)O1` [Compound 158, 1-[5′-[(2S,3S)-N^3-L-Alanyl-N^2-[N-[[(1S)-1-carboxy-2-indol-3-ylethyl]carbamoyl]-L-4-fluorophenylalanyl]-N^3-methyl-2,3-diaminobutyramidol-3′,5′-dideoxy-α-L-arabinofuranosyl]uracil], the “MIC H37RV (SENSITIVE)” value [1] is reported as 10 mg/L (≈ 12.4 µM), the “MIC Broth microdilution M. fortuitum ATCC 6841” value [2] is reported as 32 mg/L (≈ 39.6 µM) and the “MIC (μg/ml) Broth microdilution” value [3] is reported as 512 µg/mL (≈ 634 µM). For the same compound, the “MIC (μg/ml) Broth microdilution” value (Escherichia Coli MC 4100) was 512 µg/mL (≈ 634 µM), the “MIC (μg/ml) Broth microdilution” value [4] was 256 µg/mL (≈ 317 µM) and the “MIC (μg/ml) Broth microdilution” value [5] was 64 µg/mL (≈ 79.2 µM). The “MIC (μg/ml) Broth microdilution” value [6] was 512 µg/mL (≈ 634 µM), the “MIC (μg/ml) Broth microdilution” value [7] was 32 µg/mL (≈ 39.6 µM) and the “MIC Broth microdilution M. smegmatis ATCC19420” value [8] was 1 mg/L (≈ 1.24 µM). For the same compound, the “MIC (μg/ml) Broth microdilution” value [9] was 64 µg/mL (≈ 79.2 µM), the “MIC (μg/ml) Broth microdilution” value [10] was 8 µg/mL (≈ 9.9 µM) and the “MIC (μg/ml) Broth microdilution” value [11] was <1 µg/mL. The “MIC (μg/ml) Broth microdilution” value [12] was 256 µg/mL (≈ 317 µM) and the “MIC TN913 (SENSITIVE)” value [13] was 10 mg/L (≈ 12.4 µM).
For `CC(C)CC(N)C(=O)N(C)C(C)C(NC(=O)C(Cc1ccccc1)NC(=O)NC(Cc1c[nH]c2ccccc12)C(=O)O)C(=O)NCC1CC(O)C(n2ccc(=O)[nH]c2=O)O1` [Compound 159, 1-[5′-[(2S,3S)-N^2-[N-[[(1S)-1-Carboxy-2-indol-3-ylethyl]carbamoyl]-L-phenylalanyl]l-N^3-L-leucyl-N^3-methyl-2,3-diaminobutyramido]-3′,5′-dideoxy-α-L-arabinofuranosyl]uracil], the “MIC H37RV (SENSITIVE)” value [1] was 30 mg/L (≈ 36.1 µM), the “MIC Broth microdilution M. fortuitum ATCC 6841” value [2] was 64 mg/L (≈ 76.9 µM) and the “MIC (μg/ml) Broth microdilution” value [3] was >512 µg/mL. The “MIC (μg/ml) Broth microdilution” value (Escherichia Coli MC 4100) was >512 µg/mL, the “MIC (μg/ml) Broth microdilution” value [4] was 256 µg/mL (≈ 308 µM) and the “MIC (μg/ml) Broth microdilution” value [5] was 128 µg/mL (≈ 154 µM). For the same compound, the “MIC (μg/ml) Broth microdilution” value [6] was >512 µg/mL, the “MIC (μg/ml) Broth microdilution” value [7] was 64 µg/mL (≈ 76.9 µM) and the “MIC Broth microdilution M. smegmatis ATCC19420” value [8] was 8 mg/L (≈ 9.62 µM). For the same compound, the “MIC (μg/ml) Broth microdilution” value [9] was 128 µg/mL (≈ 154 µM), the “MIC (μg/ml) Broth microdilution” value [10] was 8 µg/mL (≈ 9.62 µM) and the “MIC (μg/ml) Broth microdilution” value [11] was 2 µg/mL (≈ 2.4 µM). For the same compound, the “MIC (μg/ml) Broth microdilution” value [12] was 256 µg/mL (≈ 308 µM) and the “MIC TN913 (SENSITIVE)” value [13] was 30 mg/L (≈ 36.1 µM).
With `CC(N)C(=O)N(C)C(C)C(NC(=O)C(Cc1ccccc1)NC(=O)NC(Cc1c[nH]c2ccccc12)C(=O)O)C(=O)NCC1CC(O)C(n2ccc(=O)[nH]c2=O)O1` [Compound 164, 1-[5′-[(2S,3S)-N^3-L-Alanyl-N^2-[N-[[(1S)-1-carboxy-2-indol-3-ylethyl]carbamoyl]-L-phenylalanyl]-N^3-methyl-2,3-diaminobutyramido]-3′,5′-dideoxy-α-L-arabinofuranosyl]uracil] the “MIC H37RV (SENSITIVE)” value [1] was 10 mg/L (≈ 12.7 µM), the “MIC (μg/ml) Broth microdilution” value [3] was 256 µg/mL (≈ 324 µM) and the “MIC (μg/ml) Broth microdilution” value (Escherichia Coli MC 4100) was 512 µg/mL (≈ 648 µM). The “MIC (μg/ml) Broth microdilution” value [4] was 256 µg/mL (≈ 324 µM), the “MIC (μg/ml) Broth microdilution” value [5] was 128 µg/mL (≈ 162 µM) and the “MIC (μg/ml) Broth microdilution” value [6] was 128 µg/mL (≈ 162 µM). For the same compound, the “MIC (μg/ml) Broth microdilution” value [7] was 64 µg/mL (≈ 81 µM), the “MIC (μg/ml) Broth microdilution” value [9] was 16 µg/mL (≈ 20.3 µM) and the “MIC (μg/ml) Broth microdilution” value [10] was 4 µg/mL (≈ 5.06 µM). The “MIC (μg/ml) Broth microdilution” value [11] was <1 µg/mL, the “MIC (μg/ml) Broth microdilution” value [12] was 256 µg/mL (≈ 324 µM) and the “MIC TN913 (SENSITIVE)” value [13] was 10 mg/L (≈ 12.7 µM).
For amphomycin [reference compound], the “translocase inhibition (in words)” value [14] is given as “translocase inhibitors”, the “action on mammalian enzymes / lipid-linked saccharide formation (in words)” value [15] is given as “also target mammalian enzymes” and the “MIC (μg/ml) Broth microdilution” value [3] is given as >512 µg/mL. For the same compound, the “MIC (μg/ml) Broth microdilution” value (Escherichia Coli MC 4100) was 256 µg/mL, the “MIC (μg/ml) Broth microdilution” value [4] was 512 µg/mL and the “MIC (μg/ml) Broth microdilution” value [6] was >512 µg/mL. For the same compound, the “MIC (μg/ml) Broth microdilution” value [7] was 16 µg/mL, the “MIC (μg/ml) Broth microdilution” value [9] was 64 µg/mL and the “MIC (μg/ml) Broth microdilution” value [10] was 4 µg/mL. For the same compound, the “MIC (μg/ml) Broth microdilution” value [11] was 4 µg/mL.
In the case of tunicamycin, the “translocase inhibition (in words)” value [14] is listed as “translocase inhibitors” and the “action on mammalian enzymes / lipid-linked saccharide formation (in words)” value [15] is listed as “also target mammalian enzymes”.
